System: piPSC lines
Assay: Chemical reprogramming of stable intermediate cell lines
Format: cell-based, mouse
Protocol: A subset of piPS cell lines were treated with RepSox (E-616452) (25 μM), AZA (500 μM), or both for 48 hours. For 2i treatment, CHIR99021 (Stemgent) was used at 3 μM and PD0325901 (Stemgent) was used at 1 μM. Oct4::GFP+ colonies were scored 12 days after the beginning of chemical treatment. Treatments were performed in mES media containing FBS unless otherwise noted.
10× bright field image merged with Oct4::GFP. The concentration of DMSO equals 0.2%.
piPSC or iPSC were plated on irradiated feeders or 0.1% gelatin, and grown in mES media treated with RepSox (E-616452) (25 μM), AZA (500 μM), or both for 48 hours. For 2i treatment, CHIR99021 (Stemgent) was used at 3 μM and PD0325901 (Stemgent) was used at 1 μM. Oct4::GFP+ colonies were scored 12 days after the beginning of chemical treatment. Treatments were performed in mES media containing FBS unless otherwise noted.
To examine whether multiple piPSC lines could be further reprogrammed to a fully pluripotent state, piPSC were cultured in the presence of RepSox, a known inhibitor of Tgf-β signalling previously described to reprogram intermediate cells (Ichida et al., 2009), 2i-treatment, combined chemical inhibition of Mek/Erk and GSK3 signaling (Silva et at, 2008), or the DNA methyl-transferase inhibitor 5′AzaC.

For `Cc1cccc(-c2[nH]ncc2-c2ccc3ncccc3n2)n1` [RepSox], the “reprogramming scored by presence of Oct4::GFP positive colonies” value (25 μM RepSox, 2i = CHIR99021 3 μM + PD0325901 1 μM, exposed 48 hours, scored 12 days later) was “a subset of piPSC lines reprogram” and the “further reprogramming to fully reprogrammed iPS cells as determined by the expression of Nanog” value (25 μM for 48 hours, piPSC lines D, F, G, and E, Nanog RT-PCR at 96 hours) was “underwent further reprogramming to fully reprogrammed iPS cells”.

Source: patent US20130259842A1, “STABLE REPROGRAMMED CELLS” (priority 2010, published 2013)
